The values below come from article PMC4811503, “A method for quantification of exportin-1 (XPO1) occupancy by Selective Inhibitor of Nuclear Export (SINE) compounds” (Oncotarget, 2015).

Where two headings read alike, the source gives them in different places.

Data set [1] concerns nuclear export of the XPO1 cargo protein Rev-GFP in stably transfected U2OS cells. Nature of the data set: Rev-GFP assay (nuclear retention of Rev-GFP). It counts as cell-based. Particulars: Homo sapiens. The text has this:
(§1) For this assay we utilized biotinylated LMB (b-LMB) as a tool compound to quantify the amount of XPO1 bound by SINE compounds (Figure 1). b-LMB was synthesized by coupling a biotin tag to LMB. We compared the inhibition of nuclear export and the cytotoxicity of b-LMB to that of the unmodified LMB. […] We then quantified the effects of these compounds on cell death in several cancer cell lines using an MTT cytotoxicity assay (Table 2).
For the typical Rev-GFP assay, U2OS cells stably expressing Rev-GFP [42] were cultured in 96 well plates at 7,500 - 15,000 cells/well. […] After fixation cells were stained with DAPI (Invitrogen) for 10 minutes at room temperature. Cells were imaged with a Nikon fluorescent microscope at 10X magnification and intensity of the GFP and nuclear area were measured and recorded. Cells were scored as either GFP nuclear positive or negative. Number of positive cells were divided by total number of cells in order to calculate percentage of cells with nuclear GFP per well.

Data set [2] in a line: MTT assay of unmodified and biotinylated SINE compounds (cell line not given). Format: cell-based. The conditions noted are these: for IC50: cell line not named; for fold less cytotoxic compared to unmodified counterpart: ratio of MTT IC50 values.
For the next data set, the target named is XPO1 (Homo sapiens, UniProt O14980). Nature of the data set: XPO1 occupancy assay in cultured cell lines (biotinylated probe pull-down, Simple Western). It counts as cell-based. Further details: Cells were collected, washed with PBS, and lysed with RIPA Buffer; endogenous in cells; host or cells: MM.1S. Particulars: MM.1S cells. As to the method:
b-LMB was tested for the ability to bind XPO1 protein. First, a dose-response curve was generated by exposing MM.1S cells to increasing concentrations of b-LMB (0 – 500 nM) for 1.5 hours in culture. The cells were then collected, lysed, and a portion of the lysate (input) was reserved prior to incubating the remaining lysate with streptavidin-tagged beads overnight. After extensive washes, b-LMB bound XPO1 was eluted from the beads, and XPO1 from both input and bead eluate was detected and quantified by Simple Western on Peggy Sue. Simple Western allows for the chemiluminescent detection of proteins from small volumes of samples that are run through a matrix-filled capillary. The signal is detected by a CCD camera which generates a digital image and then reports quantitative results. […] The protein signals for XPO1 detected by Simple Western in Figure 2A were reported as mean peak areas and were used to compare levels of XPO1 present in each sample to produce a graphical representation of the ratio of free XPO1 detected at each concentration of b-LMB (Figure 2B). “Ratio of bound XPO1” is defined as the ratio of the mean peak area of b-LMB bound XPO1 detected in the eluate compared to the mean peak area of all XPO1 detected in the input lysate, while “free-fraction” refers to the amount of XPO1 not occupied by SINE compound, as described later.
The cells were then collected and processed for the XPO1 occupancy assay. […] For these assays, the “ratio of free-fraction XPO1” is calculated by dividing the mean peak areas of XPO1 occupied by b-LMB (from the eluate) by the total amount of XPO1 (from the input).
Cells were collected, washed with PBS, and lysed with RIPA Buffer (Thermo Scientific) with protease inhibitors [Complete Ultra Tablets, Mini, EDTA-free, Easy pack (Roche), PhosStop Easy (Roche)]. A portion of the lysate was reserved (input) while the rest was added to washed Dynabeads MyOne Streptavidin T1 (Invitrogen) with RIPA Buffer. Samples were incubated overnight with constant rotation at 4°C. Beads were then washed 5 times with modified RIPA (150 mM NaCl, 50 mM Tris, 1% NP-40, 0.1% Na deoxycholate, 1 mM EDTA, pH 7.8). The reserved portion of lysates (input) and the beads were each mixed with Protein Simple buffer (Protein Simple), DTT (Invitrogen), and fluorescent standards (Protein Simple), then boiled at 95°C for 10 min. Eluates and inputs were analyzed using a capillary western method (Peggy Sue; Protein Simple) with the following primary antibodies: XPO1 (Santa Cruz) and β-actin (Santa Cruz). Capillary westerns were performed by SBH Sciences (Natick, MA). Peak areas corresponding to the protein molecular weight of XPO1 and actin were compared for sample inputs, while the ratio of XPO1 peak areas in eluate to input (ratio of bound or free-fraction XPO1) versus compound concentration were used in XLFit model 205 to calculate 50% and 90% occupancy curves.

The subject of a further data set is MM.1S. Kind of data set: MTT cytotoxicity assay. It counts as cell-based. Particulars: Homo sapiens, MM1.S, 72 hours, read-out: IC50.
The test system of another data set is AML2. Nature of the data set: MTT cytotoxicity assay. Format: cell-based. The conditions noted are these: 72 hours, read-out: IC50.
For another data set, the system named is HCT-116. Kind of data set: MTT cytotoxicity assay. It counts as cell-based. The conditions noted are these: Homo sapiens, 72 hours, read-out: IC50.
The test system of another data set is AML3. Nature of the data set: MTT cytotoxicity assay. Format: cell-based. Particulars: 72 hours, read-out: IC50.
For data set [3], the system named is several cancer cell lines. The conditions noted are these: human, 72 h. The method, then:
as §1
Cells were seeded in 96-well flat-bottom culture plates. […] Triplicate wells per concentration were used to calculate IC50 curves. The CellTiter-Fluor Cell Viability Assay (Promega) was performed as instructed by the manufacturer. The whole procedure was repeated three times. The inhibitory rate of cell growth was calculated using the formula: % growth inhibition = (1− OD extract treated)/OD negative control × 100).

The mark [4] stands for this setting: read-out: Rev GFP IC50 (nM), U2OS Rev-GFP cells, unmodified and biotinylated SINE compounds.
Where [5] appears, read: read-out: Rev-GFP IC50 (μM), U2OS Rev-GFP cells.
The mark [6] stands for this setting: SINE compound 1 hour, then 1 nM b-LMB […].
[7] abbreviates: SINE compound 1 hour, then 1 nM b-LMB […], read-out: Avg 50% Occupancy.
Setting [8] is: biotinylated SINE compound alone, direct binding.
Where [9] appears, read: biotinylated SINE compound alone, direct binding, read-out: 50% Occupancy.
The mark [10] stands for this setting: 4 h, read-out: Rev-GFP (nM), U2OS cells stably expressing Rev-GFP, 4 hours treatment.

Chain of XPO1 (O14980 whole entry): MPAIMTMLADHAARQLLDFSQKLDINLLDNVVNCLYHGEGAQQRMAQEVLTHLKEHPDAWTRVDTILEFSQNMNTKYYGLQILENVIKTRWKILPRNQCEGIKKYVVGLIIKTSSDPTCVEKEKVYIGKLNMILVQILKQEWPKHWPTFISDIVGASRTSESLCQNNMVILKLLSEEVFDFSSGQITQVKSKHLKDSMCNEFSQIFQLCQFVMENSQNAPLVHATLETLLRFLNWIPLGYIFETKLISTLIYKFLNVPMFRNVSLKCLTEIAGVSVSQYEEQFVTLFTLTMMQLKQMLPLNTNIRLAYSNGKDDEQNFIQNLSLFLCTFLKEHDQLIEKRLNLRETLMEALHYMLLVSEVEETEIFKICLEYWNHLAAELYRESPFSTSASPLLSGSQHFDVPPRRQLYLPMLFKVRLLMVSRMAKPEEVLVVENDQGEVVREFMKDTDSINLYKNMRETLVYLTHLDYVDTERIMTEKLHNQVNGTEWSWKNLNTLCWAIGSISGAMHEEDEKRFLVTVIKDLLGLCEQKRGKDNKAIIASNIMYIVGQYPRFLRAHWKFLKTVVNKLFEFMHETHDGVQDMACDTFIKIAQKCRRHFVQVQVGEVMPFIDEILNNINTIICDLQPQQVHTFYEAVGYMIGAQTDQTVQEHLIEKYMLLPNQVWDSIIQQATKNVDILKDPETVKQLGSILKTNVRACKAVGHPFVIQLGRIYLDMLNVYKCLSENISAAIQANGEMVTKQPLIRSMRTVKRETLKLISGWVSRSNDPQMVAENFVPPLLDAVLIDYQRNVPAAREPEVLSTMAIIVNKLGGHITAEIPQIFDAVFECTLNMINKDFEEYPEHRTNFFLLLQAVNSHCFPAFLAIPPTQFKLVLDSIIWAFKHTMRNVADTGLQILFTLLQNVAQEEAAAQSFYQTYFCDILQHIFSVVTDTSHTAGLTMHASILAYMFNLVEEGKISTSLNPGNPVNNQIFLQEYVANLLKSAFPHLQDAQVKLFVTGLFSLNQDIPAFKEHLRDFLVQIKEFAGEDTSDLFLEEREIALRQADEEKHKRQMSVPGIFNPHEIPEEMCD

As to `O=C(/C=C\n1cnc(-c2cc(C(F)(F)F)cc(C(F)(F)F)c2)n1)N1CC(F)(F)C1` [KPT-276], the IC50 in data set [1] (setting [4]) was 53 nM; in data set [2], 18 nM.
As for `COc1cc(-c2ncn(/C=C/C(=O)OC(C)C)n2)cc(C(F)(F)F)c1` [KPT-301], the “XPO1 binding in the occupancy assay (negative control)” value on XPO1 (0 – 10 μM, then 1 nM b-LMB, data not shown) is on record as “no XPO1 bound”.
As to `CC(C)(C)C(=O)NNC(=O)/C=C\n1cnc(-c2cc(C(F)(F)F)cc(C(F)(F)F)c2)n1` [KPT-350], the IC50 in data set [1] (setting [5]) worked out at 170 nM. At XPO1 (setting [6]), the “Avg 90% Occupancy (μM)” value is 6.45 +/− 3.36 (n = 3) μM. Also, the EC50 on XPO1 (setting [7]) was 630 nM.
Take `NC(=O)/C(=C/n1cnc(-c2cc(C(F)(F)F)cc(C(F)(F)F)c2)n1)c1cncnc1` [KPT-8602]: the IC50 in data set [1] (setting [4]) turned out to be 42 nM; in data set [1] (setting [5]) it was 40 nM; in data set [2] it was 19 nM. Further, the “Avg 90% Occupancy (μM)” value at XPO1 (setting [6]) is 1.1 +/− 1.03 (n = 2) μM. Further, on XPO1 (followed by 0.1 μM KPT-9511 as probe), the “90% Occupancy” value was 0.11 µM.
As for `O=C1N[C@H]2[C@H](CS[C@H]2CCCCC(=O)Oc2cc(-c3ncn(/C=C\C(=O)N4CC(F)(F)C4)n3)cc(C(F)(F)F)c2)N1` [KPT-9058], in data set [1] (setting [4]), the IC50 turned out to be 961 nM. Further, the “90% Occupancy” value at XPO1 (setting [8]) amounted to 0.69 µM. Further, the EC50 at XPO1 (setting [9]) is 120 nM. Also, in data set [2], the IC50 amounted to 110 nM and the “fold less cytotoxic compared to unmodified counterpart” value is approximately 6 fold.
Consider `NC(=O)/C(=C/n1cnc(-c2cc(OC(=O)CCCC[C@@H]3SC[C@@H]4NC(=O)N[C@@H]43)cc(C(F)(F)F)c2)n1)c1cncnc1` [KPT-9511], for which the values for the IC50 in data set [1] (setting [4]) and in data set [2] were 230 nM and 280 nM, respectively. In addition, the “90% Occupancy” value on XPO1 (setting [8]) is 0.61 µM. Further, the EC50 on XPO1 (setting [9]) amounted to 180 nM. Further, in data set [2], the “fold less cytotoxic compared to unmodified counterpart” value was approximately 15 fold.
Consider `CCC(=C/[C@H](C)C/C=C/C(C)=C/[C@@H](C)C(=O)[C@@H](C)[C@H](O)[C@@H](C)C/C(C)=C/C(=O)O)/C=C/[C@@H]1OC(=O)C=C[C@@H]1C` [LMB, leptomycin B, reference compound], for which the IC50 was determined as 0.46 nM in the data set with MM.1S; 0.39 nM with AML2; 0.16 nM in data set [1] (setting [10]); 0.19 nM with HCT-116; 0.68 nM with AML3.
On to `O=C(/C=C\n1cnc(-c2cc(C(F)(F)F)cc(C(F)(F)F)c2)n1)NNc1ccccn1` [Verdinexor, verdinexor], for which the IC50 in data set [1] (setting [5]) was 10 nM. Further, the “Avg 90% Occupancy (μM)” value on XPO1 (setting [6]) is given as 0.34 +/− 0.08 (n = 3) μM. Further, the EC50 on XPO1 (setting [7]) came out at 40 nM.
Take `CCC(C=CC1OC(=O)C=CC1C)=CC(C)CC=CC(C)=CC(C)C(=O)C(C)C(O)C(C)CC(C)=CC(=O)NCCCCCCNC(=O)CCCCC1SCC2NC(=O)NC21` (stereo not shown) [b-LMB, reference compound]: the IC50 with MM.1S was determined as 3.1 nM; in the data set with AML2, 2.53 nM; in data set [1] (setting [10]), 0.11 nM; in the data set with HCT-116, 6 nM; with AML3, 4.68 nM. Moreover, the “fold less cytotoxic than unmodified LMB” value in data set [3] is 6 – 30 fold. Moreover, the “amount of b-LMB necessary to occupy 90% of XPO1” value on XPO1 (b-LMB […], direct binding, n = 3) was 2.53 ± 1.72 nM. For the same compound, the EC50 at XPO1 (b-LMB […], direct binding, n = 3, read-out: amount of b-LMB necessary to occupy 50% of XPO1) came to 0.27 nM.
